In patent publication US20160184434A1, “AGENT FOR PROMOTING IN VIVO ABSORPTION OF HYDROXYTYROSOL AND DERIVATIVES THEREOF AND USE OF SAME” (priority 2013, published 2016):

What was measured:
[1] = Blood hydroxytyrosol after oral administration with EGCG or EGC (Example 1, HPLC); type: in vivo, SD (IGS) male rats; conditions: rats
Text: The present inventors analyzed the influence of the particular compound having a galloyl group, i.e., EGCG, on the absorption of hydroxytyrosol in the body. At the same time, the inventors also analyzed the influence of EGC, a compound having no galloyl group, on the absorption of hydroxytyrosol in the body. By comparing the results for EGCG with those for the control, we investigated whether the galloyl group is involved in the absorption of hydroxytyrosol in the body.
SD (IGS) male rats (5 weeks old) were purchased from Oriental Bioservice, Inc. and habituated to the test environment for one week, and then those rats which were well grown were put to use in the selected test. Those rats fasted overnight were divided into three groups each consisting of 4 or 5 animals. Group 1 (control) was given 5 mL/kg of distilled water and 50 mg/5 mL/kg of a commercial hydroxytyrosol solution in distilled water; Group 2 was given 100 mg/5 mL/kg of an EGC solution in distilled water and 50 mg/5 mL/kg of a hydroxytyrosol solution in distilled water; and Group 3 was given 150 mg/5 mL/kg of an EGCG solution in distilled water and 50 mg/5 mL/kg of a hydroxytyrosol solution in distilled water—all of the groups were orally administered using a sonde. Before and at 0.25, 0.5, 1, 3 and 6 hours after the start of treatment, blood was sampled from the tail vein using a heparin-coated blood collection tube and centrifuged (at 8000 rpm for 10 min) to obtain plasma samples. The obtained plasma samples were subjected to deconjugation and deproteinization treatments, and the resulting supernatants were concentrated under reduced pressure, redissolved in 20% acetonitrile, and passed through a filter. The resulting solutions were analyzed by HPLC to determine their peak areas. Thus, quantification of hydroxytyrosol was performed. The EGCG used in this example was a commercially available EGCG product (EGCG purity: 94%). The HPLC conditions are shown below.
Column: X-bridge C18 (3.5 μm, 2.1×150 mm, produced by Waters)
Mobile phase: A: 0.1% acetic acid solution in water, B: 0.1% acetic acid/90% acetonitrile solution in water

[2] = Blood hydroxytyrosol after oral administration with 150 to 750 mg/kg grape seed extract (Example 4); type: in vivo; conditions: male, SD (IGS), rat, rats, hydroxytyrosol 30 mg/kg alone (control), plasma, read-out: AUC of hydroxytyrosol at 0 to 6 hours
Method: The present inventors investigated whether the same promoting effect on the absorption of hydroxytyrosol in the body can be observed even if the dose of the grape seed extract is further increased in the same test system as used for the investigations in Examples 2 and 3. […] The method for calculating this purity will be presented later in Example 5. Also, the amount of a galloyl group contained in the grape seed extract was measured as the amount of a galloyl ester and determined to be about 2.2% by weight. The method for calculating this amount will be presented later in Example 6.
SD (IGS) male rats (8 weeks old) were purchased from Oriental Bioservice, Inc. and habituated to the test environment for one week, and then those rats which were well grown were put to use in the selected test. Those rats fasted overnight were divided into five groups each consisting of 4 animals (however, Group 5 consists of 2 animals). […]
The obtained plasma samples were subjected to deconjugation and deproteinization treatments, and the resulting supernatants were concentrated under reduced pressure, redissolved in 20% acetonitrile, and passed through a filter. The resulting solutions were analyzed by LC/MS/MS, and quantification of hydroxytyrosol was performed using the internal standard method. […]

[3] = Blood hydroxytyrosol after oral administration with reduced doses of grape seed extract (Example 3); type: in vivo; conditions: male, SD (IGS), rat, rats, hydroxytyrosol 30 mg/kg alone (control), plasma, read-out: AUC of hydroxytyrosol at 0 to 6 hours
Text: The present inventors investigated whether the same promoting effect on the absorption of hydroxytyrosol in the body as observed in Example 2 can be observed even if the dose of the grape seed extract is reduced.
SD (IGS) male rats (9.5 weeks old) were purchased from Oriental Bioservice, Inc. and habituated to the test environment for two weeks, and then those rats which were well grown were put to use in the selected test. Those rats fasted overnight were divided into three groups each consisting of 4 animals. Group 1 (control) was given 30 mg/5 mL/kg of a hydroxytyrosol solution in distilled water; Group 2 was given 30 mg/kg of hydroxytyrosol plus 5 mL/kg of a solution of 150 mg/kg grape seed extract in distilled water; and Group 3 was given 30 mg/kg of hydroxytyrosol plus 5 mL/kg of a solution of 250 mg/kg grape seed extract in distilled water—all of the groups were orally administered using a sonde. Before and at 0.25, 0.5, 1, 2, 3 and 6 hours after the start of treatment, blood was sampled from the tail vein using a heparin-coated blood collection tube and centrifuged (at 8000 rpm for 10 min) to obtain plasma samples. […] The resulting solutions were analyzed by LC/MS/MS, and quantification of hydroxytyrosol was performed using the internal standard method. […]

[4] = Blood hydroxytyrosol after oral administration with 500 mg/kg grape seed extract (Example 2, LC/MS/MS); type: in vivo, SD (IGS) male rats; conditions: rats, hydroxytyrosol 30 mg/kg alone
Method: The present inventors investigated the influence of an OPC on the absorption of hydroxytyrosol in the body.
SD (IGS) male rats (9 weeks old) were purchased from Oriental Bioservice, Inc. and habituated to the test environment for one week, and then those rats which were well grown were put to use in the selected test. Those rats fasted overnight were divided into two groups each consisting of 5 or 6 animals. Group 1 (control) was given 30 mg/5 mL/kg of a hydroxytyrosol solution in distilled water; and Group 2 was given 30 mg/kg of hydroxytyrosol plus 5 mL/kg of a solution of 500 mg/kg grape seed extract in distilled water—both of the groups were orally administered using a sonde. Before and at 0.25, 0.5, 1, 2, 3 and 6 hours after the start of treatment, blood was sampled from the tail vein using a heparin-coated blood collection tube and centrifuged (at 8000 rpm for 10 min) to obtain plasma samples. The obtained plasma samples were subjected to deconjugation and deproteinization treatments, and the resulting supernatants were concentrated under reduced pressure, redissolved in 20% acetonitrile, and passed through a filter. The resulting solutions were analyzed by LC/MS/MS, and quantification of hydroxytyrosol was performed using the internal standard method. HPLC conditions
Internal standard (I.S.): 3-(4-hydroxyphenyl)-1-propanol […]

[5] = hydroxytyrosol 50 mg/kg concurrently with EGCG 150 mg/kg

Row | blood hydroxytyrosol concentration after its peak (absorption profile) [1, 5] | time at which blood hydroxytyrosol concentration reached its peak [1, 5] [min] | AUC [2] [ng·h/mL] | AUC ([1]; male, SD (IGS), rat, hydroxytyrosol 50 mg/kg alone (control), plasma, read-out: AUC of hydroxytyrosol (amount absorbed in the body)) [ng·h/mL] | time at which blood hydroxytyrosol concentration reached its peak ([1]; hydroxytyrosol 50 mg/kg alone) [min] | AUC [3] [ng·h/mL] | blood hydroxytyrosol at 2 or 3 hours after administration [4] | SMILES
1 | kept high even thereafter | 30 | – | – | – | – | – | O=C(O[C@@H]1Cc2c(O)cc(O)cc2O[C@@H]1c1cc(O)c(O)c(O)c1)c1cc(O)c(O)c(O)c1 [EGCG, epigallocatechin gallate]
2 | – | – | 7360 | 12000 | 18 | 8640 | little or no hydroxytyrosol was detected | OCCc1ccc(O)c(O)c1 [hydroxytyrosol, 3,4-dihydroxyphenylethanol]
